Reference: ChEMBL document CHEMBL5291721, “A preclinical secondary pharmacology resource illuminates target-adverse drug reaction associations of marketed drugs” (Nat Commun, 2023)

Tests used:
[1] = target: T1, Alpha-1A adrenergic receptor (Homo sapiens, UniProt P35348)
T1 sequence (P35348 whole entry): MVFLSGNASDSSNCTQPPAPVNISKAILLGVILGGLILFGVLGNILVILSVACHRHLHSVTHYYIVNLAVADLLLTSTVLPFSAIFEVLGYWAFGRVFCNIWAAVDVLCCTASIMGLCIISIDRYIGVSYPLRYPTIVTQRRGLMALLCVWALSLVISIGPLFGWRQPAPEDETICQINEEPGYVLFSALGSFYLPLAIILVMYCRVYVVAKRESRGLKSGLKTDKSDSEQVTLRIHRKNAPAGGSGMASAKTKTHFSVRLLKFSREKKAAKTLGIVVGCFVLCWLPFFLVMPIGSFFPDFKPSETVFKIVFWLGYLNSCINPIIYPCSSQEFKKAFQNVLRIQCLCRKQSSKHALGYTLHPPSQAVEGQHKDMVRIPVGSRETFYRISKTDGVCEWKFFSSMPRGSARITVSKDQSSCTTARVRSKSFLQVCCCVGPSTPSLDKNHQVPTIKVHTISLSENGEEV

[2] = target: Vasopressin V1a receptor (Homo sapiens, UniProt P37288)
[3] = target: T2, Cholecystokinin receptor type A (Homo sapiens, UniProt P32238)
T2 sequence (P32238 whole entry): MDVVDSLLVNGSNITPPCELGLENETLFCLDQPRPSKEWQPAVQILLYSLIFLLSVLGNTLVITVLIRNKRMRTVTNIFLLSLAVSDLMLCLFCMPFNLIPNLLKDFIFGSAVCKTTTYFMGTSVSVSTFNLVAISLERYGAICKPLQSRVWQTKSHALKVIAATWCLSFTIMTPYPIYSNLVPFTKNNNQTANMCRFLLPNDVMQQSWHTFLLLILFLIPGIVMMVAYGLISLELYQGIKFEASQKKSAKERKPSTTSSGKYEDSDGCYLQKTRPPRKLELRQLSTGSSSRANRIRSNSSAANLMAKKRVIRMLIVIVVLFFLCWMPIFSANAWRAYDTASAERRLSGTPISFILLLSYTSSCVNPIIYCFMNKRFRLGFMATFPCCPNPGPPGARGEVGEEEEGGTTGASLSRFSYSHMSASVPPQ

[4] = target: T3, Muscarinic acetylcholine receptor M1 (Homo sapiens, UniProt P11229); assay type: functional, cell-based
T3 sequence (P11229 whole entry): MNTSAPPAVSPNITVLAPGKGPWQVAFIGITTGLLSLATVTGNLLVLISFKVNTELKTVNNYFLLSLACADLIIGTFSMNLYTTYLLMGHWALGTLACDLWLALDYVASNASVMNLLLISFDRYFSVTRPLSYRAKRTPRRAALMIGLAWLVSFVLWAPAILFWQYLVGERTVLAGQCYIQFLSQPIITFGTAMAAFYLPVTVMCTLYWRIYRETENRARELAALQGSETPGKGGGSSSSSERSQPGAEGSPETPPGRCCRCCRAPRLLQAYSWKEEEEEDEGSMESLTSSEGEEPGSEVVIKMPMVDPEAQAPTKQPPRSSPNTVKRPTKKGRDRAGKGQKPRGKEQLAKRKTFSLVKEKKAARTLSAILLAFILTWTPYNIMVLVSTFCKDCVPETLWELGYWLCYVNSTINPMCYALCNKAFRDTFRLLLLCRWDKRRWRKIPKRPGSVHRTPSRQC

[5] = target: Neuronal acetylcholine receptor subunit alpha-4 (Homo sapiens, UniProt P43681)
[6] = target: Gamma-aminobutyric acid receptor subunit alpha-1 (Rattus norvegicus, UniProt P62813); assay type: functional
[7] = target: T4, 5-hydroxytryptamine receptor 1A (Homo sapiens, UniProt P08908); assay type: functional, cell-based
T4 sequence (P08908 whole entry): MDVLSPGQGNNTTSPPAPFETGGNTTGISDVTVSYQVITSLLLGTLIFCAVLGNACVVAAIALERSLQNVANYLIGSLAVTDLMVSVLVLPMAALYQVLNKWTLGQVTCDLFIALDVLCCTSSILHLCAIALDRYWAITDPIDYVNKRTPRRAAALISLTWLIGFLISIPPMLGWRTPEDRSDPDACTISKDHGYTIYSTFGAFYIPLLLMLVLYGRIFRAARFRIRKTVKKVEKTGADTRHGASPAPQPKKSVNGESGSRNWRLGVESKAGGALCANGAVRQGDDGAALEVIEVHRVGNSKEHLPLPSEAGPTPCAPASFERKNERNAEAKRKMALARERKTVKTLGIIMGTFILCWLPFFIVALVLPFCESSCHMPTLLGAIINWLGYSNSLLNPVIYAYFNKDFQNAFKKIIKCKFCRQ

[8] = target: T4, 5-hydroxytryptamine receptor 1A; assay type: functional, cell-based; remark: listed apart in the source
[9] = target: Kappa-type opioid receptor (Homo sapiens, UniProt P41145)
[10] = target: 3',5'-cyclic-AMP phosphodiesterase 4D (Homo sapiens, UniProt Q08499); assay type: functional
[11] = target: D(3) dopamine receptor (Homo sapiens, UniProt P35462)
[12] = target: T1, Alpha-1A adrenergic receptor; assay type: functional, cell-based
Note: assay procedure not described here.

Sequence of 3',5'-cyclic-AMP phosphodiesterase 4D (Q08499 whole entry): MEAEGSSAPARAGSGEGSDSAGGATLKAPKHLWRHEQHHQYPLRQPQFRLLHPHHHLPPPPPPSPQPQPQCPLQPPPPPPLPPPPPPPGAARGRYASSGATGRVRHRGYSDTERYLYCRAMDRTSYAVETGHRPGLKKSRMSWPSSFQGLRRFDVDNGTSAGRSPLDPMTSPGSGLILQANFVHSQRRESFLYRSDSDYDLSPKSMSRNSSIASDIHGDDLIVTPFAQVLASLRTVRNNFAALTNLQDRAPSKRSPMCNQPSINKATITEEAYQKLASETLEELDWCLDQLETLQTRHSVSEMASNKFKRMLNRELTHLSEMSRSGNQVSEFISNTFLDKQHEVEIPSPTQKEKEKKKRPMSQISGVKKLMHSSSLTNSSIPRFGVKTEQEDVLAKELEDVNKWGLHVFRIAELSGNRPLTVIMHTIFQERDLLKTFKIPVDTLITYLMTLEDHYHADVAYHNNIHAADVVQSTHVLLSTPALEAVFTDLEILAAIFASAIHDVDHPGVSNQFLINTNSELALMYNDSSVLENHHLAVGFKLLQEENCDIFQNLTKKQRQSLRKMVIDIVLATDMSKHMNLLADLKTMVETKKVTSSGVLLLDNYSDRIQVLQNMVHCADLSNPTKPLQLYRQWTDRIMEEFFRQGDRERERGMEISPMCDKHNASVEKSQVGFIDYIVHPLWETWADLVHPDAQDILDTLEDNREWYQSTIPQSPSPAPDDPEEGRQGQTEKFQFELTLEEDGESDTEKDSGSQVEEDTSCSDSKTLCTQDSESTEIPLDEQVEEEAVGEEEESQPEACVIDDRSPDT
Sequence of Vasopressin V1a receptor (P37288 whole entry): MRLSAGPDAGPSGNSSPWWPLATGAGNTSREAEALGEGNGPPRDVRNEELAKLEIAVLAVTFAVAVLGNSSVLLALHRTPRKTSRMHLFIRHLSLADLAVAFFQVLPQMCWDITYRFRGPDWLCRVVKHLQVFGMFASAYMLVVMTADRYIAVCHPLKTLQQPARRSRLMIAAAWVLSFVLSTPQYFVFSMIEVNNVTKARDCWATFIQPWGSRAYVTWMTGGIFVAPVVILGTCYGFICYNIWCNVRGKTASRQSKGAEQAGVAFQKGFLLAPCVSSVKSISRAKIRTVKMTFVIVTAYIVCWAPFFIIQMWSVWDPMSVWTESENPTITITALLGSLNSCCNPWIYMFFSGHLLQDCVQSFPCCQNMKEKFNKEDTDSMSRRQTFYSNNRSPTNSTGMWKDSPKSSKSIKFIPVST
Sequence of Kappa-type opioid receptor (P41145 whole entry): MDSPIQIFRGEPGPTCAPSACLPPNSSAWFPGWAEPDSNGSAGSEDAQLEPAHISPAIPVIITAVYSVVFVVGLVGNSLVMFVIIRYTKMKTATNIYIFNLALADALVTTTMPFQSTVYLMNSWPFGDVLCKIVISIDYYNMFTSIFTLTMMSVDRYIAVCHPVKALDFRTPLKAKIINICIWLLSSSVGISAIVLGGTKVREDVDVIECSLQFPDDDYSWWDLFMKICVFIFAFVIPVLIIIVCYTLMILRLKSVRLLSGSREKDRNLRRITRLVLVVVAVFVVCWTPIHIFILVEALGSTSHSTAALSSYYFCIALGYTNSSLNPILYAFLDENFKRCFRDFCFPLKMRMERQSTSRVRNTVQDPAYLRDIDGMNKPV
Sequence of D(3) dopamine receptor (P35462 whole entry): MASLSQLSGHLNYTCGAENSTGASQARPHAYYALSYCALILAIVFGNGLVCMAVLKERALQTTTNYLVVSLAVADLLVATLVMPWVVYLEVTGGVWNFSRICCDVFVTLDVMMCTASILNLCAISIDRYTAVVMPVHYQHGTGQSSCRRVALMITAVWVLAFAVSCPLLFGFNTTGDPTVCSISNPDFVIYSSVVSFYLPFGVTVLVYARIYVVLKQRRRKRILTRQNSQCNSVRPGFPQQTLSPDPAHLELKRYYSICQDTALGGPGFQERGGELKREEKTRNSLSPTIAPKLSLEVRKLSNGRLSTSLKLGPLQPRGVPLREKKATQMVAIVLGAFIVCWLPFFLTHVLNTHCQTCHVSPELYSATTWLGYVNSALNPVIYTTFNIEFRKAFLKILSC
Sequence of Gamma-aminobutyric acid receptor subunit alpha-1 (P62813 whole entry): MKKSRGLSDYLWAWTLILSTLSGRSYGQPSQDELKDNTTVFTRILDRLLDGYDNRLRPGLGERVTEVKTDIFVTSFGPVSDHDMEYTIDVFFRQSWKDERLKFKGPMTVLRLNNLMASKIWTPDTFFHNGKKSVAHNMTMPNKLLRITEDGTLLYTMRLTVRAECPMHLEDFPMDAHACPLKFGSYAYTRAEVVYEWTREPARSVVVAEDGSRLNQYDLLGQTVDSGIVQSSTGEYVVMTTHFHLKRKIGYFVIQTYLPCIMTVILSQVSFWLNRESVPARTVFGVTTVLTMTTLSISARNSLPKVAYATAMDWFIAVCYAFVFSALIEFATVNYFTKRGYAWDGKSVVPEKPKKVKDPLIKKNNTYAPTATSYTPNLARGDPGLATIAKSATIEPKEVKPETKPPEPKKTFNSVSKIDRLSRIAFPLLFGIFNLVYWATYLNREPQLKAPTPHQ
Sequence of Neuronal acetylcholine receptor subunit alpha-4 (P43681 whole entry): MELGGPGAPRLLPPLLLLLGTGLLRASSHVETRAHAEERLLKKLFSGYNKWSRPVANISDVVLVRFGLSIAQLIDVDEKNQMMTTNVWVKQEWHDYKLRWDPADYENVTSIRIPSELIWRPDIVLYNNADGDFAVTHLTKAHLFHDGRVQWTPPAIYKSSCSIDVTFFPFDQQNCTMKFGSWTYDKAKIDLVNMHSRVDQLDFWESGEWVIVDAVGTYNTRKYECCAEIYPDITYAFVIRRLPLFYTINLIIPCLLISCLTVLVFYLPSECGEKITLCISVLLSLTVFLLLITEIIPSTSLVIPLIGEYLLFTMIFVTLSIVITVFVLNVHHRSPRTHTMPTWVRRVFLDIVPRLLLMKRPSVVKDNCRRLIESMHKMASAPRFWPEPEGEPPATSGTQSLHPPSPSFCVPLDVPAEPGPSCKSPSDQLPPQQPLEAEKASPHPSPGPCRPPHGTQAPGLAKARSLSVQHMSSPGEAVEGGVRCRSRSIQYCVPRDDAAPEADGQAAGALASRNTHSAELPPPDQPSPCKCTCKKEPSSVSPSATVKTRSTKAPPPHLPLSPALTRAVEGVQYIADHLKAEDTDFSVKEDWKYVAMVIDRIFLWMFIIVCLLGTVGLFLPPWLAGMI

C[C@@H]1C[C@H]2[C@@H]3C[C@H](F)C4=CC(=O)C=C[C@]4(C)[C@@]3(F)[C@@H](O)C[C@]2(C)[C@@]1(OC(=O)c1ccco1)C(=O)SCF [FLUTICASONE FUROATE]
AC50 [1]: > 10 µM
AC50 [2]: > 10 µM
AC50 [3]: > 10 µM
AC50 [4]: > 30 µM
AC50 [5]: > 10 µM
AC50 [6]: > 10 µM
AC50 [7]: > 10 µM
AC50 [8]: > 10 µM
AC50 [9]: > 10 µM
AC50 [10]: > 30 µM
AC50 [11]: > 30 µM
AC50 [12]: > 30 µM

N#Cc1ccc(Oc2ccc3c(c2)COB3O)cc1 [CRISABOROLE]
AC50 [4]: 13.7 µM
AC50 [10]: 0.8 µM

CC(COc1ccccc1)NC(C)C(O)c1ccc(O)cc1 (stereo unspecified) [ISOXSUPRINE]
AC50 [4]: > 30 µM

Cc1cn([C@H]2O[C@@H](CO)[C@H](O)[C@H]2F)c(=O)[nH]c1=O [CLEVUDINE]
AC50 [4]: > 30 µM

CC[N+](C)(CC)CCOC(=O)C(O)(c1ccccc1)C1CCCCC1 (stereo unspecified) [OXYPHENONIUM]
AC50 [4]: 0.003 µM

C[C@@H]1C[C@H]2[C@@H]3C[C@H](F)C4=CC(=O)C=C[C@]4(C)[C@H]3[C@@H](O)C[C@]2(C)[C@@]1(O)C(=O)CO [PARAMETHASONE]
AC50 [4]: > 30 µM

COc1ccc(OC)c(C(O)C(C)N)c1 (stereo unspecified) [METHOXAMINE]
AC50 [4]: > 30 µM

CCC[C@H](N[C@@H](C)C(=O)N1[C@H](C(=O)O)C[C@@H]2CCCC[C@@H]21)C(=O)OCC [PERINDOPRIL]
AC50 [4]: > 30 µM

CC(=O)[C@H]1CC[C@H]2[C@@H]3C=CC4=CC(=O)CC[C@@]4(C)[C@@H]3CC[C@]12C [DYDROGESTERONE]
AC50 [4]: 5.06 µM

Clc1ccc(C(Cn2ccnc2)OCc2csc3c(Cl)cccc23)c(Cl)c1 (stereo unspecified) [SERTACONAZOLE]
AC50 [4]: 9.44 µM

CC1(C)S[C@@H]2[C@H](/N=C/N3CCCCCC3)C(=O)N2[C@H]1C(=O)O [AMDINOCILLIN]
AC50 [4]: > 30 µM

CC1(CCN2CCCCC2)C(=O)CCc2ccccc21 (stereo unspecified) [NEPINALONE]
AC50 [4]: > 30 µM

CC(C)(C)NC(=O)N[C@H](C(=O)N1C[C@H]2[C@@H]([C@H]1C(=O)NC(CC1CCC1)C(=O)C(N)=O)C2(C)C)C(C)(C)C (stereo partly specified) [BOCEPREVIR]
AC50 [4]: > 30 µM

Cc1ncc2c(c1O)COC2c1ccc(Cl)cc1 (stereo unspecified) [CICLETANINE]
AC50 [4]: > 30 µM

Cc1ccc(S(=O)(=O)NC(=O)NC2CCCCC2)cc1 [GLYCYCLAMIDE]
AC50 [4]: > 30 µM

CC(=O)O[C@H]1Cc2ccccc2N(C(N)=O)c2ccccc21 [ESLICARBAZEPINE ACETATE]
AC50 [4]: > 30 µM

COC(=O)C[C@](O)(CCCC(C)(C)O)C(=O)O[C@@H]1C(OC)=C[C@]23CCCN2CCc2cc4c(cc2[C@H]13)OCO4 [OMACETAXINE MEPESUCCINATE]
AC50 [4]: > 30 µM

CCCn1cnc2c1c(=O)n(CCCCC(C)=O)c(=O)n2C [PROPENTOFYLLINE]
AC50 [4]: > 30 µM

CC(=O)OCC(=O)[C@@]1(O)CC[C@H]2[C@@H]3CCC4=CC(=O)CC[C@]4(C)[C@H]3[C@@H](O)C[C@@]21C [HYDROCORTISONE ACETATE]
AC50 [4]: 17.7 µM

O=C(O)[C@@H]1C[C@@H](O)CN1
AC50 [4]: > 30 µM

N[C@@H](Cc1ccccc1)C(=O)O [PHENYLALANINE]
AC50 [4]: > 30 µM

CC(=O)[C@]1(N)Cc2c(O)c3c(c(O)c2[C@@H](O[C@H]2C[C@H](O)[C@H](O)CO2)C1)C(=O)c1ccccc1C3=O [AMRUBICIN]
AC50 [4]: > 3 µM

CN1CCCN(C(c2ccccc2)c2ccc(Cl)cc2)CC1 (stereo unspecified) [HOMOCHLORCYCLIZINE]
AC50 [4]: 0.12 µM

Cc1cc2c(cc1S(N)(=O)=O)S(=O)(=O)CCC2
AC50 [4]: > 30 µM
